Consider four molecules from PMC4343023, “Selectivity of odorant-binding proteins from the southern house mosquito tested against physiologically relevant ligands” (Frontiers in Physiology, 2015).

Where only a bound is given, the exact number is not on record here.

The test system of assay [1] is Mosquitoes with reduced transcripts of CquiOBP1. The arrangement: method as in Pelletier et al., 2010. The note with it: ref Pelletier et al., 2010; cited from earlier work.
Assay [2] deals with T1, CquiOBP1 (Culex quinquefasciatus, UniProt Q8T6I2). Put plainly: pH-dependent binding assay. The conditions noted are these: CquiOBP1-NPN quenching by ligand, pH 4.5 to 8, 4PL fit. Here is the method:
To investigate the effects of pH on CquiOBP1–ligand complexes, fluorescence binding assay was measured between CquiOBP1 and three best ligands at different pH values. Buffer were prepared into two different ways: starting from 1M phosphate buffer, pH 4, pH was increased and adjusted by adding sodium hydroxide. Then protein was added to make a solution at each tested pH from 4.5 to 8. Experiments were repeated starting from pH 8 and lowering the pH by adding hydrochloric acid. Each tested solution had 200 mM buffer and 10 μg/ml (microgram) of CquiOBP1. As there were no significant differences in fluorescence data generated at a certain pH regardless of having the pH raised by adding NaOH or lowered by addition of HCl, data were pooled for subsequent analysis.
The pH of the midpoint transitions was obtained by non-linear fitting, sigmoidal with an equation for four-parameter logistic (4PL) of curve segments between the lowest and highest decrease in fluorescence (the rising part of each curve). The pH values calculated for the midpoint transitions with MOP, picaridin, and nonanal were 6.3, 5.8, and 5.5, respectively. Although the pH at the surface of dendritic membrane is not known, it is predicted that too low midpoint transition may lead to odorants being trapped in OBPs and not being properly delivered. In short, the acidity at the surface of the membrane may not be enough to trigger release of a ligand with too low midpoint transition pH. By considering only the dissociation constants obtained by in vitro binding assays (Table 1), one could reasonably argue that CquiOBP1 is involved in reception of nonanal. […] Next, we compared how these ligands would interact with CquiOBP1.

Another assay has as its target CquiOBP2 (Culex quinquefasciatus, UniProt C7BDZ6). Put plainly: biochemical. The note with it: for IC50 / Kd / Int (fluorescence emission): CquiOBP2; for IC50: NPN displacement titration, read-out: IC50; for Kd: calculated from IC50 of NPN displacement, read-out: Kd; for Int (fluorescence emission): residual NPN fluorescence, normalized to 100 prior to ligand, screen at 2–20 μM ligand. The class given is binding. As for the experimental part: (§1) Binding affinity (Ban et al., [2002]) was tested with a panel of 34 compounds, including attractants, a mosquito oviposition pheromone, repellents, terpenoids and other putative mosquito attractants or repellents. Unless otherwise specified, they were purchased from Sigma-Aldrich/Fluka/Acros (St. Louis, MO). Repellents: DEET (N,N-diethyl-3-methylbenzamide), PMD (p-mentan-3,8-diol) (Bedoukian Research, Inc.), picaridin (butan-2-yl 2-(2-hydroxyethyl)piperidine-1-carboxylate), IR3535 (ethyl 3-[acetyl(butyl)amino]propanoate) (gifts from Dr. Kamal Chauhan, USDA, ARS, Beltsville), (±)-citronellal, and ethyl 2-phenylacetate. Oviposition attractants: (5R,6S)-6-acetoxy-5-hexadecanolide, MOP (Bedoukian Research, Inc.), skatole, indole, 4-methylphenol, and 4-ethylphenol. Human derived compounds: nonanal, 6-methyl-5-hepten-2-one (sulcatone). Terpenoids and other putative attractants/repellents: linalool, linalool oxide, eucalyptol, camphor, fenchone, thujone, geranyl acetate, eugenol, (Z)-3-hexenyl acetate, 1-octen-3-ol, 1-octyn-3-ol, 3-octanol, 1-hexanol, methylcyclohexanol, methyl salicylate, cyclohexanone, acetophenone, benzaldehyde, 3,5-dimethoxybenzene, 1,2-dimethoxybenzene, and 2-phenylethanol.
(§2) Fluorescence spectra were recorded in a right angle configuration on a spectrofluorimeter (RF-5301, Shimadzu, Kyoto, Japan) at room temperature using a 1 cm light path fluorimeter quartz cuvette. Slit widths of 10 nm were selected for both excitation and emission. N-phenyl-1-naphthylamine (NPN, or 1-NPN) (Ban et al., [2002]) was dissolved in methanol to yield a 1 mM stock solution. The binding affinity for NPN was determined by adding aliquots of NPN into a 10 μg/ml (microgram) protein sample. NPN was excited at 337 nm and emission spectra were recorded at high speed scanning between 350 and 500 nm. All ligands used in competition experiments were dissolved in spectrophotometric grade methanol. Binding data were collected in three independent measurements. Bound ligand was evaluated from fluorescence intensity assuming that the protein was 100% active, with a stoichiometry of 1:1 (protein: ligand) at saturation. The KNPN values were estimated using Prism 5 (GraphPad Software, Inc., La Jolla, CA) by non-linear regression for a unique site of binding. The curves were linearized using Scatchard plots. Dissociation constants of the competitors were calculated according to Campanacci et al. ([2001]) from the corresponding IC50 values in the equation: Kdiss = [IC50]/1+[NPN]/KNPN, where [NPN] is the free concentration of NPN and KNPN is the dissociation constant of the complex protein/NPN.

The next assay deals with CquiOBP5 (Culex quinquefasciatus, UniProt C7BDZ9). As to the kind of experiment: biochemical. The class given is binding. The conditions noted are these: for IC50 / Kd / Int (fluorescence emission): CquiOBP5; for IC50: NPN displacement titration, read-out: IC50; for Kd: calculated from IC50 of NPN displacement, read-out: Kd; for Int (fluorescence emission): residual NPN fluorescence, normalized to 100 prior to ligand, screen at 2–20 μM ligand. Here is the method: as §1, §2
CquiOBP5, sequence (C7BDZ9 entry or part of it): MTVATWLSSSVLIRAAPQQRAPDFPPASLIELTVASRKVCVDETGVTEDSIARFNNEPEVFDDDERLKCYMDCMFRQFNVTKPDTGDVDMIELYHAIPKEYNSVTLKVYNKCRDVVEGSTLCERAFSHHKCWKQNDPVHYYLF

The target in assay [3] is T1, CquiOBP1. As to the kind of experiment: biochemical. The class given is binding. The note with it: for IC50 / Kd / Int (fluorescence emission): CquiOBP1; for IC50: NPN displacement titration, read-out: IC50; for Kd: calculated from IC50 of NPN displacement, read-out: Kd; for Int (fluorescence emission): residual NPN fluorescence, normalized to 100 prior to ligand, screen at 2–20 μM ligand. As for the experimental part:
as §1, §2

A further assay relates to AfunOBP1. Further details: method as in Xu et al., 2010. The note with it: panel of EAG-active compounds; ref Xu et al., 2010; cited from earlier work.
For another assay, the system named is AgamOBP1. Further details: method as in Biessmann et al., 2010. The conditions noted are these: ref Biessmann et al., 2010; cited from earlier work.
The test system of the next assay is AaegOBP1. Further details: method as in Leal and Leal, 2015. The conditions noted are these: ref Leal and Leal, 2015; cited from earlier work.

CquiOBP2, sequence (C7BDZ6 entry or part of it): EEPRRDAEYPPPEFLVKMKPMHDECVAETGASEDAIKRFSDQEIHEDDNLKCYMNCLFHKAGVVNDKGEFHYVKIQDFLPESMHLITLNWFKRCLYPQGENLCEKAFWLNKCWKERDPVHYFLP
T1 sequence (Q8T6I2 entry or part of it): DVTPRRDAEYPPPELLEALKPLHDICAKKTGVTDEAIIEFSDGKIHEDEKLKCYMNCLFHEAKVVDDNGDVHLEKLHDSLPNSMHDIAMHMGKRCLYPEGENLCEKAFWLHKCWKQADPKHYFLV

The IC50 is the concentration that gives 50% inhibition. As a reminder, the Kd is the constant that tells how readily two partners part at equilibrium. For `CCCCCCCCC=O` [Nonanal, nonanal], in assay [1], the “EAG responses, knockdown vs wild type” value is reported as “not significantly different”. In addition, at CquiOBP1 [2], the “pH of the midpoint transition” value is 5.5. On CquiOBP2, the IC50 is > 10 µM, the Kd was > 2.5 µM and the “Int (fluorescence emission)” value is given as 87. For the same molecule, on CquiOBP5, the IC50 was determined as 8.3 µM, the Kd is 5.8 µM and the “Int (fluorescence emission)” value was 46.5. Also, on CquiOBP1 [3], the concentration for half-maximal inhibition (IC50) was determined as 10.5 µM, the Kd was 6.6 µM and the “Int (fluorescence emission)” value stood at 51.4.
Turning to `CCCCCCCCCC(C)=O` [2-undecanone], the “binding to AfunOBP1” value in the assay with AfunOBP1 was “best ligand”.
Regarding `c1ccc2[nH]ccc2c1` [Indole, indole], in the assay with AgamOBP1, the “binding to AgamOBP1” value was “selectively bind”. In addition, on CquiOBP2, the IC50 was > 10 µM, the Kd was > 2.5 µM and the “Int (fluorescence emission)” value was 87. On CquiOBP5, the half-inhibitory concentration (IC50) was > 10 µM, the Kd is > 7 µM and the “Int (fluorescence emission)” value is reported as 80. On CquiOBP1 [3], the IC50 was > 10 µM, the equilibrium dissociation constant (Kd) was > 6.3 µM and the “Int (fluorescence emission)” value is recorded as 86.
Turning to `CCCCCCCCCC[C@H](OC(C)=O)[C@H]1CCCC(=O)O1` [MOP, (5R,6S)-6-acetoxy-5-hexadecanolide], the “EAG responses, knockdown vs wild type” value in assay [1] was “significant lower”. The “pH of the midpoint transition” value on CquiOBP1 [2] came to 6.3. Besides, in the assay with AaegOBP1, the “binding to AaegOBP1” value is on record as “bound”. The IC50 on CquiOBP2 is > 10 µM; at CquiOBP5, 10.3 µM; on CquiOBP1 [3] it was 8.4 µM. The Kd on CquiOBP2 was > 2.5 µM; at CquiOBP5, 7.2 µM; at CquiOBP1 [3] it was 5.3 µM. Also, the “Int (fluorescence emission)” value on CquiOBP2 is reported as 86; on CquiOBP5 it was 52; on CquiOBP1 [3] it was 48. For the same molecule, the “binding to CquiOBP2 (in words)” value at CquiOBP2 (in vitro, NPN displacement) is listed as “cannot displace NPN”. For the same molecule, the “binding to CquiOBP5 (in words)” value on CquiOBP5 (in vitro, NPN displacement) is reported as “bound”. For the same molecule, on CquiOBP1 [3] (in vitro, NPN displacement), the “binding to CquiOBP1 (in words)” value is “bound”.
